Measurements reported in US6960597B2, “Aza-bridged-bicyclic amino acid derivatives as α4 integrin antagonists” (Orth-McNeil Pharmaceutical, Inc., priority 2000, dated 2005).
Read-outs that look alike come from different tables or passages of the source.

Assays:
[1] = target: α4β1 (Homo sapiens, UniProt P05556+P13612); settings: cited from earlier work
[2] = test system: oxazolone-induced contact hypersensitivity; settings: mouse; 6 mg/kg, sc; cited from earlier work
[3] = test system: heterotopic heart allograft; settings: hyperlipidemic rabbit; cited from earlier work
[4] = target: T1, α4β1 integrin receptor (Homo sapiens, UniProt P05556+P13612); experiment: Ramos Cell Adhesion Assay (α4β1 Mediated Adhesion/VCAM-1); format: cell-based
T1 construct: Ramos Cell Adhesion Assay (α4β1 Mediated Adhesion/VCAM-1); endogenous in cells; host or cells: Ramos cells
Summary of the method: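 Plates coated overnight at 4° C with recombinant hVCAM-1 (4.0 μg/mL, pH 9.0), then blocked with PBS/1% BSA. Ramos cells labelled with 5 μM Calcein AM adhered 1 h at room temperature with compound; after washing, cells were lysed in SDS and fluorescence read at 485/530 nm.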

[5] = target: T2, human α4β7 (Homo sapiens, UniProt P13612+P26010); experiment: α4β7-K562 Cell Adhesion Assay (α4β7 Mediated Adhesion/VCAM-1); format: cell-based
T2 construct: expressed in transfected cells
T2 sequence (P13612 34-1032): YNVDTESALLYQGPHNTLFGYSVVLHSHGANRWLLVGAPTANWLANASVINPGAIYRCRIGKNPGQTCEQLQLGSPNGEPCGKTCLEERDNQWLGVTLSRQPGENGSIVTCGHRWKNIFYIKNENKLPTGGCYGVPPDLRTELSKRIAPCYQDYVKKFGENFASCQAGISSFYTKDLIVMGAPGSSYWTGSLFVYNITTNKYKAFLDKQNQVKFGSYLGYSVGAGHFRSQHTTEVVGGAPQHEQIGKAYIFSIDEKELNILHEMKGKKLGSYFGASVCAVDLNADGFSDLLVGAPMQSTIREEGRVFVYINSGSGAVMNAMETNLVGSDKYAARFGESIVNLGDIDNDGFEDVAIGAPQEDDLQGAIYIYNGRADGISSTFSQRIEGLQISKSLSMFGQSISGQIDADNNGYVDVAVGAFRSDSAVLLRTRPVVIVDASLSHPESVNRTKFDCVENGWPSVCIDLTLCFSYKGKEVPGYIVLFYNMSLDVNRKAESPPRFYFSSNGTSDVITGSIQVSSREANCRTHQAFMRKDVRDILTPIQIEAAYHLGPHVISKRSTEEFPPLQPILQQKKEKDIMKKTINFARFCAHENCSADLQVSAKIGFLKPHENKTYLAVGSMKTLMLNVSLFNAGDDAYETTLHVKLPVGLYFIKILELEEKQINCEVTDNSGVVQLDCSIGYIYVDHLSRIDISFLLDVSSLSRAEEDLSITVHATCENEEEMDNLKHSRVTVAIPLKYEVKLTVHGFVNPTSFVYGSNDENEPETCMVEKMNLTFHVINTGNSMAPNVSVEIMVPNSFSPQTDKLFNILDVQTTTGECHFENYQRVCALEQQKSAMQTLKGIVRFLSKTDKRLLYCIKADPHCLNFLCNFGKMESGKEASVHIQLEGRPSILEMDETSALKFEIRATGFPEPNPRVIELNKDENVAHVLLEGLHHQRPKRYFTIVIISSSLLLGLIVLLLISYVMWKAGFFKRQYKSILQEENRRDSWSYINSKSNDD
T2 sequence (P26010 20-798): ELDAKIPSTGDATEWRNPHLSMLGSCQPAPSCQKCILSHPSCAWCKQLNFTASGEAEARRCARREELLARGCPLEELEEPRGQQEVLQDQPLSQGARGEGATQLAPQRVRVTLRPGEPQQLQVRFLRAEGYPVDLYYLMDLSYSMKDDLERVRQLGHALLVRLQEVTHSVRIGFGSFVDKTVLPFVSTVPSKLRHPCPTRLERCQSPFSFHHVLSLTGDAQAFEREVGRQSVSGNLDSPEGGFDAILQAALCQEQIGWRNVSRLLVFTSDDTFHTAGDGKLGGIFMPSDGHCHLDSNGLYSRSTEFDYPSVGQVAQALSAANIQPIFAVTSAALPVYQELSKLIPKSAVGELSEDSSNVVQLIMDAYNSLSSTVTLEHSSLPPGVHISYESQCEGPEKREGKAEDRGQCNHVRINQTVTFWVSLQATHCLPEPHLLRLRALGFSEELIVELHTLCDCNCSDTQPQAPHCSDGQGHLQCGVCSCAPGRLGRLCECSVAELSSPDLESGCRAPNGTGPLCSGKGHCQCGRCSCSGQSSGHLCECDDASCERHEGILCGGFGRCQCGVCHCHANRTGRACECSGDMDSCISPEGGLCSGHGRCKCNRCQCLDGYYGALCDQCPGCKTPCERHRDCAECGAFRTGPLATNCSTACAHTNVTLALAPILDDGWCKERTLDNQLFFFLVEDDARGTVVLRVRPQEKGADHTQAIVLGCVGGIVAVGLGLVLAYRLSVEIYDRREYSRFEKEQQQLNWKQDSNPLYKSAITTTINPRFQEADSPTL
Summary of the method: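 K562 cells stably expressing human α4β7, labelled with 5 μM Calcein AM, adhered for 1 h at room temperature to plates coated with recombinant hVCAM-1 (4.0 μg/mL) in the presence of compound. After washing, cells were lysed in Tris/SDS. Bound cells were read by fluorescence at 485/530 nm.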

[6] = Table I, racemic mixtures and resolved (S,S) and (R,S) diastereomers, read-out: Antagonist IC50 Activity α4β1
[7] = Table III, read-out: Inhibition of Binding of Ramos Cells to Immobilized VCAM-1 IC50
[8] = Table I, racemic mixtures and resolved (S,S) and (R,S) diastereomers, read-out: Antagonist IC50 Activity α4β7
[9] = Table IV, μM, read-out: Inhibition of Binding of K562 Cells to Immobilized VCAM-1 IC50
[10] = Table IV, read-out: Inhibition of Binding of K562 Cells to Immobilized VCAM-1 IC50

T1 sequence (P05556 21-798, one chain of several): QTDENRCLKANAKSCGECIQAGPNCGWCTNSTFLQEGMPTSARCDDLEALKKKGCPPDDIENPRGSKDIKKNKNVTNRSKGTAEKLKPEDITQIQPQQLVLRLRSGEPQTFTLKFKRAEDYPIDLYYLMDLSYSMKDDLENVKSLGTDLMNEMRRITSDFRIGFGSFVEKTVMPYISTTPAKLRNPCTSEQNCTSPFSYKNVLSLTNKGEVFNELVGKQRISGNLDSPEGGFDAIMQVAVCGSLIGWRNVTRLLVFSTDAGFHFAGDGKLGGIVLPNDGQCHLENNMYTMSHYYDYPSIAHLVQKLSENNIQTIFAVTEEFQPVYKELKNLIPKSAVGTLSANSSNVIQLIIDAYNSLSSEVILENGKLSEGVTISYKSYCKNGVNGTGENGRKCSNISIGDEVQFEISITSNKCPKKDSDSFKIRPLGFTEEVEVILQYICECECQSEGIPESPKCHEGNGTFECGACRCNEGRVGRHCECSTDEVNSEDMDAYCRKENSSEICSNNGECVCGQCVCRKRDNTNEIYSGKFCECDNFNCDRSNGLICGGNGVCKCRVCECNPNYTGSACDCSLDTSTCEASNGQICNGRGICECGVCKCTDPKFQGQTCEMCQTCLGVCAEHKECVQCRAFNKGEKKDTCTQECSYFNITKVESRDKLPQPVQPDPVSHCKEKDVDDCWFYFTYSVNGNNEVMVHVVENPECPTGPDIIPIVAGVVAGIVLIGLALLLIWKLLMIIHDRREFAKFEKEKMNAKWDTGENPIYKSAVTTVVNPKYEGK
Sequence of α4β1 (P05556 21-798, one chain of several): as above

Row | Compound | IC50 [4, 7] [µM] | IC50 [5, 9] [µM] | other results
1 | Phenylacetyl-Leu-Asp-Phe-D-Pro-NH2 |  |  | IC50 [1]: 2 µM; efficacy in oxazolone-induced contact hypersensitivity [2]: efficacy similar to the α4 antibody PS/2; efficacy in heterotopic heart allograft model [3]: effective
2 | O=C(Nc1ccc(C[C@H](NC(=O)[C@@H]2C3CCC(C3)N2S(=O)(=O)c2ccccc2)C(=O)O)cc1)c1c(F)cccc1F (stereo partly drawn) [Cpd 5a, 4-[(2,6-difluorobenzoyl)amino]-N-[[(3S)-2-(phenylsulfonyl)-2-azabicyclo[2.2.1]hept-3-yl]carbonyl]-L-phenylalanine] | 0.081 |  | IC50 [4, 6]: 0.081 µM; IC50 [5, 8]: 0.062 µM
3 | O=C(Nc1ccc(C[C@H](NC(=O)[C@H]2C3CCC(C3)N2S(=O)(=O)c2ccccc2)C(=O)O)cc1)c1c(F)cccc1F (stereo partly drawn) [Cpd 5b, 4-[(2,6-difluorobenzoyl)amino]-N-[[(3R)-2-(phenylsulfonyl)-2-azabicyclo[2.2.1]hept-3-yl]carbonyl]-L-phenylalanine] | 0.394 |  | IC50 [4, 6]: 0.394 µM; IC50 [5, 8]: 3.38 µM
4 | CC(C)(C)Oc1ccc(C[C@H](NC(=O)C2C3CCC(CC3)N2S(=O)(=O)c2ccccc2)C(=O)O)cc1 (stereo partly drawn) [Cpd 45, O-(1,1-dimethylethyl)-N-[[2-(phenylsulfonyl)-2-azabicyclo[2.2.2]oct-3-yl]carbonyl]-L-tyrosine] | 3.17 | > 10 | 
5 | COc1cccc(OC)c1C(=O)Nc1ccc(C[C@H](NC(=O)C2C3CCC(CC3)N2S(=O)(=O)c2ccc(F)cc2)C(=O)O)cc1 (stereo partly drawn) [Cpd 55, 4-[(2,6-dimethoxybenzoyl)amino]-N-[[2-[(4-fluorophenyl)sulfonyl]-2-azabicyclo[2.2.2]oct-3-yl]carbonyl]-L-phenylalanine] | 0.303 |  | IC50 [5, 10]: 0.091 µM
6 | O=C(Nc1ccc(C[C@H](NC(=O)[C@@H]2C3CCC(CC3)N2S(=O)(=O)c2cccs2)C(=O)O)cc1)c1c(Cl)cncc1Cl [Cpd 71a, 4-[[(3,5-dichloro-4-pyridinyl)carbonyl]amino]-N-[[(3S)-2-(2-thienylsulfonyl)-2-azabicyclo[2.2.2]oct-3-yl]carbonyl]-L-phenylalanine] | 0.36 |  | IC50 [4, 6]: 0.006 µM; IC50 [5, 8]: 0.033 µM
7 | CC(C)(C)c1ccc(C[C@H](NC(=O)C2C3CCC(CC3)N2S(=O)(=O)c2ccccc2)C(=O)O)cc1 (stereo partly drawn) [Cpd 58, 4-(1,1-dimethylethyl)-N-[[2-(phenylsulfonyl)-2-azabicyclo[2.2.2]oct-3-yl]carbonyl]-L-phenylalanine] | 0.523 | > 10 | 
8 | Cc1ccc(S(=O)(=O)N2C3CCC(CC3)C2C(=O)N[C@@H](Cc2ccc(C#Cc3ccc(C(C)(C)C)cc3)cc2)C(=O)O)cc1 (stereo partly drawn) [Cpd 23, 4-[[4-(1,1-dimethylethyl)phenyl]ethynyl]-N-[[2-[(4-methylphenyl)sulfonyl]-2-azabicyclo[2.2.2]oct-3-yl]carbonyl]-L-phenylalanine] | 1.42 | > 10 | 
9 | Cc1ccc(S(=O)(=O)N2C3CCC(CC3)C2C(=O)N[C@@H](Cc2ccc(NC(=O)c3ccccc3C)cc2)C(=O)O)cc1 (stereo partly drawn) [Cpd 9, 4-[(2-methylbenzoyl)amino]-N-[[2-[(4-methylphenyl)sulfonyl]-2-azabicyclo[2.2.2]oct-3-yl]carbonyl]-(α^1S)-phenylalanine] | 0.267 | > 5 | 
10 | O=C(Nc1ccc(C[C@H](NC(=O)C2C3CCC(CC3)N2S(=O)(=O)c2ccc(F)cc2)C(=O)O)cc1)c1c(Cl)cccc1Cl (stereo partly drawn) [Cpd 54, 4-[(2,6-dichlorobenzoyl)amino]-N-[[2-[(4-fluorophenyl)sulfonyl]-2-azabicyclo[2.2.2]oct-3-yl]carbonyl]-L-phenylalanine] | 0.146 |  | IC50 [5, 10]: 0.118 µM
11 | Cc1ccc(S(=O)(=O)N2C3CCC(CC3)C2C(=O)N[C@@H](Cc2ccc(C#Cc3ccccc3)cc2)C(=O)O)cc1 (stereo partly drawn) [Cpd 24, 4-(phenylethynyl)-N-[[2-[(4-methylphenyl)sulfonyl]-2-azabicyclo[2.2.2]oct-3-yl]carbonyl]-L-phenylalanine] | 1.1 | > 10 | 
12 | CC(C)C(=O)Nc1ccc(C[C@H](NC(=O)[C@@H]2C3CCC(CC3)N2S(=O)(=O)c2ccccc2)C(=O)O)cc1 [Cpd 69, 4-[(2-methyl-1-oxopropyl)amino]-N-[[(3S)-2-(phenylsulfonyl)-2-azabicyclo[2.2.2]oct-3-yl]carbonyl]-L-phenylalanine] | 0.455 |  | IC50 [5, 10]: 1.67 µM
13 | O=C(O)[C@H](Cc1ccc(OCc2c(Cl)cccc2Cl)c(F)c1)NC(=O)[C@@H]1C2CCC(CC2)N1S(=O)(=O)c1ccccc1 [Cpd 62a, O-[(2,6-dichlorophenyl)methyl]-3-fluoro-N-[[(3S)-2-(phenylsulfonyl)-2-azabicyclo[2.2.2]oct-3-yl]carbonyl]-L-tyrosine] |  | > 10 | IC50 ([4]; Table III, μM, read-out: Inhibition of Binding of Ramos Cells to Immobilized VCAM-1 IC50): > 5 µM
14 | Cc1ccc(S(=O)(=O)N2C3CCC(CC3)C2C(=O)N[C@@H](Cc2ccc(NC(=O)c3ccccc3OC(F)(F)F)cc2)C(=O)O)cc1 (stereo partly shown) [Cpd 13] | 0.119 | > 10 | 
15 | O=C(Nc1ccc(C[C@H](NC(=O)C2C3CCC(CC3)N2S(=O)(=O)c2cccs2)C(=O)O)cc1)c1c(Cl)cccc1Cl (stereo partly drawn) [Cpd 66, 4-[(2,6-dichlorobenzoyl)amino]-N-[[2-(2-thienylsulfonyl)-2-azabicyclo[2.2.2]oct-3-yl]carbonyl]-L-phenylalanine] | 0.017 |  | IC50 [5, 10]: 0.186 µM
